# Like-named read-outs stand apart in the source and are kept apart here. *1 amine or outer side, *2 acyl side, *3 side chain or, on linkers, in order; H or OH if unused. Where a SMILES comes first, the peptide text is derived from it. [ ]: non-standard residue; d: D form. Gly(N(CH2)2(3-indolyl)) = O=C(O)CNCCc1c[nH]c2ccccc12; N(2-mercaptoethyl)Gly = O=C(CN(CCS[*:3])[*:1])[*:2]; Gly(N-(CH2)3-guanidino) = N=C(N)NCCCNCC(=O)O; NGly(CH2(3-pyridyl)) = O=C(O)CNCc1cccnc1; N(CH2CH2COOH)Gly = O=C(O)CCNCC(=O)O; Gly(N(CH2)3NH2) = NCCCNCC(=O)O; Cysteamide = C(CS[*:3])N[*:1]; X1 = CSCCN(CC(=O)[*:2])[*:1]; Nphe = O=C(O)CNCc1ccccc1; NPrGly = CCCNCC(=O)O; Nme = COCCNCC(=O)O; Sar = CNCC(=O)O
# Test system: polyclonal human IgG
# Test: Adsorption isotherm of peptoid affinity resins against polyclonal human IgG
# Type: binding
# Design: Qmax: unit not given here
# Details: for Qmax: maximum capacity (qmax) of resin from isotherm fit; for Kd: peptoid ligand conjugated to chromatographic resin, IgG in PBS, hyperbola fit of isotherm, Kd given in molar, read-out: Kd x 10^−6
# Experimental: The affinity for the peptoid-resin combinations was determined by measuring the adsorption isotherm of each resin against polyclonal human IgG (Pakimna et al., J Applied Sci., 12(11): 1136-1141, 2012). Briefly, 0.050 mL of 50% resin slurry was pipetted into 6 individual wells of a 96-well filter plate (0.45 micron, PVDF, Harvard Apparatus). The resin was washed with 2×250 μL PBS using a vacuum manifold. To an individual well, 0.25 mL of a human polyclonal IgG solution at different concentrations (10, 5, 2.5, 1.25, 0.625, and 0.3125 mg/mL) was added. The resin/IgG suspension was agitated gently on a rocking table for 30 minutes. The fluid was then collected via vacuum, and the resin was washed with 0.25 mL of PBS. The filtrate and wash were then analyzed by the BCA assay to determine the residual IgG concentration relative to the starting concentration of the solution.
# The equilibrium concentrations were then used to determine the capacity of the resin at each IgG concentration using the following formula: q=Volumesample×(Initial Concentration−Equilibrium Concentration)/Volumeresin
# A plot of q versus equilibrium concentration was generated and the data fit with a hyperbola to determine the affinity constant (Kd) and the maximum capacity (qmax) according to the below formula, where C=the equilibrium concentration of antibody in solution: q=qmax×C/(kd+C) Typical adsorption isotherm is shown in FIG. 2. Tabulated Kd and qmax data is found in Table 2.
Compound,Qmax (Table 3),Kd (Table 3) [µM],Qmax (Table 2),Kd (Table 2) [µM]
CCCN(CC(=O)N(CCc1c[nH]c2ccccc12)CC(=O)NCCS)C(=O)CN(CCc1c[nH]c2ccccc12)C(=O)CN(C)C(=O)CN(CCCNC(=N)N)C(=O)CN(CCOC)C(=O)CNCc1cccnc1 [Ligand 15-28-5] (H-[NGly(CH2(3-pyridyl))][Nme][Gly(N-(CH2)3-guanidino)][Sar][Gly(N(CH2)2(3-indolyl))][NPrGly][Gly(N(CH2)2(3-indolyl))]-Cysteamide),61,6.1,,
CCCNCC(=O)N(CCc1c[nH]c2ccccc12)CC(=O)NCC(=O)N(CCCNC(=N)N)CC(=O)N(CCc1c[nH]c2ccccc12)CC(=O)N(CC(=O)NCCS)Cc1cccnc1 [Ligand 12-65-9],,,76,9.3
COCCNCC(=O)N(CCc1c[nH]c2ccccc12)CC(=O)N(CCc1c[nH]c2ccccc12)CC(=O)N(CCCN)CC(=O)NCCS [Ligand 16-77-4] (H-[Nme][Gly(N(CH2)2(3-indolyl))][Gly(N(CH2)2(3-indolyl))][Gly(N(CH2)3NH2)]-Cysteamide),,,44,4.3
CCCN(CC(=O)N(CCCN)CC(=O)N(CC(=O)N(CCC(=O)O)CC(=O)N(C)CC(=O)NCCS)Cc1cccnc1)C(=O)CN(CCC(=O)O)C(=O)CNCc1cccnc1 [Ligand 16-75-1] (H-[NGly(CH2(3-pyridyl))][N(CH2CH2COOH)Gly][NPrGly][Gly(N(CH2)3NH2)][NGly(CH2(3-pyridyl))][N(CH2CH2COOH)Gly][Sar]-Cysteamide),33,18,,
CCCNCC(=O)N(CC(=O)N(CC(=O)N(C)CC(=O)N(CCc1c[nH]c2ccccc12)CC(=O)N(CCC)CC(=O)N(CCc1c[nH]c2ccccc12)CC(=O)NCCS)Cc1ccccc1)Cc1cccnc1 [Ligand 12-79-4] (H-[NPrGly][NGly(CH2(3-pyridyl))][Nphe][Sar][Gly(N(CH2)2(3-indolyl))][NPrGly][Gly(N(CH2)2(3-indolyl))]-Cysteamide),69,3.6,,
NCCCNCC(=O)N(CC(=O)N(CCc1c[nH]c2ccccc12)CC(=O)N(CCc1c[nH]c2ccccc12)CC(=O)NCCS)Cc1cccnc1 [Ligand 16-82-3] (H-[Gly(N(CH2)3NH2)][NGly(CH2(3-pyridyl))][Gly(N(CH2)2(3-indolyl))][Gly(N(CH2)2(3-indolyl))]-Cysteamide),,,47,2.5
CCCN(CC(=O)N(CCc1c[nH]c2ccccc12)CC(=O)NCCS)C(=O)CN(CCc1c[nH]c2ccccc12)C(=O)CN(C)C(=O)CN(CCC(=O)O)C(=O)CN(Cc1cccnc1)C(=O)CNCCCN [Ligand 15-91-4] (H-[Gly(N(CH2)3NH2)][NGly(CH2(3-pyridyl))][N(CH2CH2COOH)Gly][Sar][Gly(N(CH2)2(3-indolyl))][NPrGly][Gly(N(CH2)2(3-indolyl))]-Cysteamide),32,6,,
COCCN(CC(=O)N(CC(=O)NCCS)Cc1cccnc1)C(=O)CN(CCCN)C(=O)CNCCc1c[nH]c2ccccc12 [Ligand 16-81-7] (H-[Gly(N(CH2)2(3-indolyl))][Gly(N(CH2)3NH2)][Nme][NGly(CH2(3-pyridyl))]-Cysteamide),39,4.8,,
CCCN(CC(=O)N(C)CC(=O)N(CCc1c[nH]c2ccccc12)CC(=O)N(CCC)CC(=O)N(CCc1c[nH]c2ccccc12)CC(=O)NCCS)C(=O)CN(CCCNC(=N)N)C(=O)CNCCc1c[nH]c2ccccc12 [Ligand 12-76-3] (H-[Gly(N(CH2)2(3-indolyl))][Gly(N-(CH2)3-guanidino)][NPrGly][Sar][Gly(N(CH2)2(3-indolyl))][NPrGly][Gly(N(CH2)2(3-indolyl))]-Cysteamide),87,3.2,,
COCCN(CC(=O)N(CCCN)CC(=O)N(CCc1c[nH]c2ccccc12)CC(=O)NCCS)C(=O)CNCc1cccnc1 [Ligand 16-81-6] (H-[NGly(CH2(3-pyridyl))][Nme][Gly(N(CH2)3NH2)][Gly(N(CH2)2(3-indolyl))]-Cysteamide),45,3.6,,
COCCN(CC(=O)N(CC(=O)N(CCCNC(=N)N)CC(=O)N(CC(=O)N(CCC(=O)O)CC(=O)N(C)CC(=O)NCCS)Cc1cccnc1)Cc1ccccc1)C(=O)CNCc1cccnc1 [Ligand 18-28-12] (H-[NGly(CH2(3-pyridyl))][Nme][Nphe][Gly(N-(CH2)3-guanidino)][NGly(CH2(3-pyridyl))][N(CH2CH2COOH)Gly][Sar]-Cysteamide),,,41,16
CCCN(CC(=O)N(CCc1c[nH]c2ccccc12)CC(=O)NCCS)C(=O)CN(CCc1c[nH]c2ccccc12)C(=O)CN(C)C(=O)CN(Cc1cccnc1)C(=O)CN(CCSC)C(=O)CNCc1cccnc1 [Ligand 16-64-2] (H-[NGly(CH2(3-pyridyl))][N(2-mercaptoethyl)Gly](Me)[NGly(CH2(3-pyridyl))][Sar][Gly(N(CH2)2(3-indolyl))][NPrGly][Gly(N(CH2)2(3-indolyl))]-Cysteamide),49,5.5,,
NC(=O)NCCCN(CC(=O)N(CCc1c[nH]c2ccccc12)CC(=O)NCCS)C(=O)CN(CCc1c[nH]c2ccccc12)C(=O)CNCc1cccnc1 [Ligand 16-77-1],,,61,3.6
CSCCN(CC(=O)N(CCCN)CC(=O)N(CC(=O)N(CCC(=O)O)CC(=O)N(C)CC(=O)NCCS)Cc1cccnc1)C(=O)CN(Cc1ccccc1)C(=O)CNCc1cccnc1 [Ligand 16-64-4] (H-[NGly(CH2(3-pyridyl))][Nphe][X1][Gly(N(CH2)3NH2)][NGly(CH2(3-pyridyl))][N(CH2CH2COOH)Gly][Sar]-Cysteamide),33,28,,
NC(=O)NCCCN(CC(=O)N(CCc1c[nH]c2ccccc12)CC(=O)N(CC(=O)NCCS)Cc1cccnc1)C(=O)CNCCc1c[nH]c2ccccc12 [Ligand 16-75-5],,,44,4.3
CCCN(CC(=O)N(CCc1c[nH]c2ccccc12)CC(=O)NCCS)C(=O)CN(CCc1c[nH]c2ccccc12)C(=O)CN(C)C(=O)CN(Cc1cccnc1)C(=O)CN(CCOC)C(=O)CNCc1cccnc1 [Ligand 15-91-1] (H-[NGly(CH2(3-pyridyl))][Nme][NGly(CH2(3-pyridyl))][Sar][Gly(N(CH2)2(3-indolyl))][NPrGly][Gly(N(CH2)2(3-indolyl))]-Cysteamide),80,66,,
CCCN(CC(=O)N(CCc1c[nH]c2ccccc12)CC(=O)NCCS)C(=O)CN(CCc1c[nH]c2ccccc12)C(=O)CN(C)C(=O)CN(CCCNC(=N)N)C(=O)CN(CCc1c[nH]c2ccccc12)C(=O)CNCCC(=O)O [Ligand 18-28-7] (H-[N(CH2CH2COOH)Gly][Gly(N(CH2)2(3-indolyl))][Gly(N-(CH2)3-guanidino)][Sar][Gly(N(CH2)2(3-indolyl))][NPrGly][Gly(N(CH2)2(3-indolyl))]-Cysteamide),42,5.6,,
CCCN(CC(=O)N(CCc1c[nH]c2ccccc12)CC(=O)NCCS)C(=O)CN(CCc1c[nH]c2ccccc12)C(=O)CN(C)C(=O)CN(CCc1c[nH]c2ccccc12)C(=O)CN(Cc1cccnc1)C(=O)CNCCCNC(=N)N [Ligand 12-76-4] (H-[Gly(N-(CH2)3-guanidino)][NGly(CH2(3-pyridyl))][Gly(N(CH2)2(3-indolyl))][Sar][Gly(N(CH2)2(3-indolyl))][NPrGly][Gly(N(CH2)2(3-indolyl))]-Cysteamide),,,89,5.7
COCCNCC(=O)N(CCc1c[nH]c2ccccc12)CC(=O)N(CCc1c[nH]c2ccccc12)CC(=O)N(CCCN)CC(=O)N(CC(=O)N(CCC(=O)O)CC(=O)N(C)CC(=O)NCCS)Cc1cccnc1 [Ligand 12-73-2] (H-[Nme][Gly(N(CH2)2(3-indolyl))][Gly(N(CH2)2(3-indolyl))][Gly(N(CH2)3NH2)][NGly(CH2(3-pyridyl))][N(CH2CH2COOH)Gly][Sar]-Cysteamide),,,74,2.7
CCCN(CC(=O)N(CCc1c[nH]c2ccccc12)CC(=O)NCCS)C(=O)CN(CCc1c[nH]c2ccccc12)C(=O)CN(C)C(=O)CN(CCc1c[nH]c2ccccc12)C(=O)CN(Cc1cccnc1)C(=O)CNCCCN [Ligand 12-73-4] (H-[Gly(N(CH2)3NH2)][NGly(CH2(3-pyridyl))][Gly(N(CH2)2(3-indolyl))][Sar][Gly(N(CH2)2(3-indolyl))][NPrGly][Gly(N(CH2)2(3-indolyl))]-Cysteamide),,,72,3.9
CCCN(CC(=O)N(CCc1c[nH]c2ccccc12)CC(=O)NCCS)C(=O)CN(CCc1c[nH]c2ccccc12)C(=O)CN(C)C(=O)CN(Cc1cccnc1)C(=O)CN(CCc1c[nH]c2ccccc12)C(=O)CNCCCNC(=N)N [Ligand 18-28-6] (H-[Gly(N-(CH2)3-guanidino)][Gly(N(CH2)2(3-indolyl))][NGly(CH2(3-pyridyl))][Sar][Gly(N(CH2)2(3-indolyl))][NPrGly][Gly(N(CH2)2(3-indolyl))]-Cysteamide),,,42,2.6
O=C(CN(CCc1c[nH]c2ccccc12)C(=O)CN(Cc1cccnc1)C(=O)CN(CCc1c[nH]c2ccccc12)C(=O)CNCc1cccnc1)NCCS [Ligand 16-82-2],41,2.5,,
